What was measured:
S. aureus DSM 20231 [1] = test: fitness (endpoint OD595 vs no drug) (fraction); higher = more growth
Method in brief: (§1)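 With the first reading as background, OD595 was measured every 30 min for 14 h in 384-well plates kept at 37 °C and inoculated at OD595 0.01. TSB, LB Lennox or CY was the medium. Fitness is the optical density at the transition into stationary phase divided by the robust mean of no-drug control wells, with a cap of 1.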

B. subtilis 168 [2] = test: as above
Method in brief: as §1

S. aureus Newman [3] = test: as above
Method in brief: as §1

S. pneumoniae D39V [4] = test: as above
Method in brief: as §1

S. aureus DSM 20231 [5] = test: Bliss interaction score (quartile over a dose matrix) (fitness difference); higher = more antagonism (negative = synergy)
Method in brief: (§2)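 The Bliss score is observed fitness minus expected fitness, where the expected value is the product of single-drug fitness values inferred from combination data. Fitness is OD595 at entry into stationary phase normalised to the plate's robust no-drug mean and capped at 1. Scores are reported as quartiles spanning technical, biological and donor/recipient replicates.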

B. subtilis 168 [6] = test: as above
Method in brief: as §2

S. aureus Newman [7] = test: as above
Method in brief: as §2

S. pneumoniae D39V [8] = test: as above
Method in brief: as §2
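Wherever Bliss interaction score (quartile over a dose matrix) is given: first quartile when negative (synergy) and third quartile when positive (antagonism).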
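Wherever fitness (endpoint OD595 vs no drug) is given: OD595 on entry to stationary phase over no-drug wells; at most 1.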

Cc1ncc([N+](=O)[O-])n1CCO [Metronidazole] + CCN(CC)CCOC(=O)c1ccc(N)cc1 [Procaine]
fitness
Conditions | partner 85.5 µg/mL | partner 171 µg/mL | partner 342 µg/mL
B. subtilis 168 [2], first compound 0.625 µg/mL | 0.94 | 0.944 | 0.876
B. subtilis 168 [2], first compound 1.25 µg/mL | 0.935 | 0.956 | 0.937
B. subtilis 168 [2], first compound 2.5 µg/mL | 0.896 | 0.868 | 0.958
S. aureus DSM 20231 [1], first compound 0.625 µg/mL | 0.996 | ≥ 1 | ≥ 1
S. aureus DSM 20231 [1], first compound 1.25 µg/mL | 0.977 | ≥ 1 | ≥ 1
S. aureus DSM 20231 [1], first compound 2.5 µg/mL | 0.938 | ≥ 1 | ≥ 1
S. aureus Newman [3], first compound 0.625 µg/mL | 0.934 | 0.934 | 0.686
S. aureus Newman [3], first compound 1.25 µg/mL | 0.858 | 0.988 | –
S. aureus Newman [3], first compound 2.5 µg/mL | 0.814 | 0.876 | –
S. pneumoniae D39V [4], first compound 1.073 µg/mL | 0.979 | 0.969 | 0.939
S. pneumoniae D39V [4], first compound 2.145 µg/mL | 0.911 | 0.948 | 0.89
S. pneumoniae D39V [4], first compound 4.29 µg/mL | 0.914 | 0.894 | 0.927

fitness, one replicate
Conditions | first compound 0.781 µg/mL | first compound 1.25 µg/mL | first compound 1.562 µg/mL | first compound 2.5 µg/mL | first compound 3.124 µg/mL | first compound 5 µg/mL
S. aureus Newman [3], partner 85.5 µg/mL | ≥ 1 | – | ≥ 1 | – | ≥ 1 | –
S. aureus Newman [3], partner 171 µg/mL | ≥ 1 | – | ≥ 1 | – | ≥ 1 | –
S. aureus Newman [3], partner 342 µg/mL | ≥ 1 | – | ≥ 1 | – | ≥ 1 | –
S. pneumoniae D39V [4], partner 85.5 µg/mL | – | ≥ 1 | – | ≥ 1 | – | 0.979
S. pneumoniae D39V [4], partner 171 µg/mL | – | ≥ 1 | – | ≥ 1 | – | ≥ 1
S. pneumoniae D39V [4], partner 342 µg/mL | – | 0.952 | – | ≥ 1 | – | 0.95

Conditions | Bliss interaction score
B. subtilis 168 [6] | -0.0393
S. aureus DSM 20231 [5] | 0.0477
S. aureus Newman [7] | 0.0807
S. pneumoniae D39V [8] | -0.0526

CO/N=C(\C(=O)N[C@@H]1C(=O)N2C(C(=O)O)=C(COC(C)=O)CS[C@H]12)c1csc(N)n1 [Cefotaxime] + O=C(O[C@@H]1Cc2c(O)cc(O)cc2O[C@@H]1c1cc(O)c(O)c(O)c1)c1cc(O)c(O)c(O)c1 [EGCG]
fitness
Conditions | partner 6.25 µg/mL | partner 12.5 µg/mL | partner 25 µg/mL | partner 50 µg/mL
B. subtilis 168 [2], first compound 0.5 µg/mL | 0.265 | 0.293 | 0.103 | –
B. subtilis 168 [2], first compound 1 µg/mL | 0.119 | 0.166 | 0.0631 | –
B. subtilis 168 [2], first compound 2 µg/mL | 0.0879 | 0.142 | 0.0481 | –
S. aureus DSM 20231 [1], first compound 0.039 µg/mL | – | 0.696 | 0.702 | 0.651
S. aureus DSM 20231 [1], first compound 0.078 µg/mL | – | 0.655 | 0.704 | 0.625
S. aureus DSM 20231 [1], first compound 0.156 µg/mL | – | 0.685 | 0.697 | 0.746
S. aureus DSM 20231 [1], first compound 0.312 µg/mL | – | 0.736 | 0.622 | –
S. aureus Newman [3], first compound 0.078 µg/mL | – | 0.594 | 0.615 | 0.573
S. aureus Newman [3], first compound 0.156 µg/mL | – | 0.574 | 0.391 | 0.564
S. aureus Newman [3], first compound 0.625 µg/mL | – | 0.198 | 0.071 | 0.0397
S. aureus Newman [3], first compound 1.25 µg/mL | – | 0.0285 | 0.0144 | 0.0286
S. aureus Newman [3], first compound 2.5 µg/mL | – | 0.0123 | 0.0423 | 0.0268
S. pneumoniae D39V [4], first compound 0.0018 µg/mL | – | 0.977 | 0.978 | 0.939
S. pneumoniae D39V [4], first compound 0.0035 µg/mL | – | 0.989 | ≥ 1 | 0.955
S. pneumoniae D39V [4], first compound 0.007 µg/mL | – | 0.889 | 0.914 | 0.883

fitness, one replicate
Conditions | first compound 0.00775 µg/mL | first compound 0.0155 µg/mL | first compound 0.031 µg/mL | first compound 0.039 µg/mL | first compound 0.0625 µg/mL | first compound 0.125 µg/mL | first compound 0.25 µg/mL | first compound 0.312 µg/mL
B. subtilis 168 [2], partner 6.25 µg/mL | 0.847 | 0.723 | 0.588 | – | 0.532 | 0.462 | 0.403 | –
B. subtilis 168 [2], partner 12.5 µg/mL | 0.466 | 0.341 | 0.284 | – | 0.59 | 0.521 | 0.475 | –
B. subtilis 168 [2], partner 25 µg/mL | 0.192 | 0.129 | 0.133 | – | 0.547 | 0.484 | 0.32 | –
S. aureus Newman [3], partner 12.5 µg/mL | – | – | – | 0.751 | – | – | – | 0.317
S. aureus Newman [3], partner 25 µg/mL | – | – | – | 0.786 | – | – | – | 0.268
S. aureus Newman [3], partner 50 µg/mL | – | – | – | 0.726 | – | – | – | 0.14

Conditions | Bliss interaction score
B. subtilis 168 [6] | 0.112
S. aureus DSM 20231 [5] | 0.0466
S. aureus Newman [7] | 0.0329
S. pneumoniae D39V [8] | 0.07
